The source made the active and inactive calls. The rule behind the calls is not given here.
What was measured:
[1] = Turnovers, ratio of RIBOTAC activity at Pre-miR-21 RNA/RNase L in human MDA-MB-231 cells assessed as decrease in pre-miR-21 level by measuring cleaved pre-miR-21 level at 500 nM incubated for 24 hrs […] to drug concentration in human MDA-MB-231 cells; format: functional
A-375 = assay: Antiinvasive activity in human A-375 cells assessed as decrease in pre-miR-21 overexpression induced invasion at 500 nM incubated for 24 hrs […]; format: functional, cell-based
[2] = Drug uptake in human MDA-MB-231 cells assessed as compound level at 500 nM incubated for 24 hrs; format: ADME, cell-based; conditions: mda-mb-231, 24 h, 0.5 µM
A549 = assay: Antiinvasive activity in human A549 cells assessed as decrease in pre-miR-21 overexpression induced invasion at 500 nM incubated for 24 hrs […]; format: functional, cell-based
microRNA 21 = assay: RIBOTAC activity at Pre-miR-21 RNA/RNase L in human MDA-MB-231 cells assessed as decrease in pre-miR-21 level by measuring cleaved pre-miR-21 level at 500 nM incubated for 24 hrs […]; format: cell-based

Drug uptake [2]: 2.6 pmol
SMILES: CCCN(CC(=O)N(CCC)CC(=O)N(CCC)CC(=O)N(CC(=O)NCCOCCOCCOCCOc1ccc(/C=C2\SC(Nc3ccccc3)=C(C(=O)OCC)C2=O)cc1O)Cc1cn(CCCNC(=O)CCCOc2ccc(-c3nc4ccc(-c5ccc(N6CCN(C)CC6)cc5)cc4[nH]3)cc2)nn1)C(=O)CN(Cc1cn(CCCNC(=O)CCCOc2ccc(-c3nc4cc(-c5ccc(N6CCN(C)CC6)cc5)ccc4[nH]3)cc2)nn1)C(C)=O
Ratio [1]: 26 | Activity (A-375): Active | Activity (A549): Active | Activity (microRNA 21): 68 pmol

— ChEMBL document CHEMBL4840379, “RIBOTACs: Small Molecules Selectively Destroy Cancer-Associated RNA” (ACS Med Chem Lett, 2021)
